According to ChEMBL document CHEMBL1131078, “Small molecular probes for G-protein-coupled C5a receptors: conformationally constrained antagonists derived from the C terminus of the human plasma protein C5a” (J Med Chem, 1998):
Active and inactive are the calls of the source. The calls are words filed in the database; no cut-off is given here. Where a SMILES comes first, the peptide text is derived from it.

Key:
[1] = organism: Homo sapiens; test: Agonist activity at dose range 0.1 nM to 1 mM in human PMNs; No agonistic activity; assay type: functional
[2] = molecular target: T1, C5a anaphylatoxin chemotactic receptor 1 (Homo sapiens, UniProt P21730); test: 50% reduction in binding of [125I]C5a to human polymorphonuclear cells (PMNs); assay type: cell-based, PMN
T1 sequence (P21730 whole entry): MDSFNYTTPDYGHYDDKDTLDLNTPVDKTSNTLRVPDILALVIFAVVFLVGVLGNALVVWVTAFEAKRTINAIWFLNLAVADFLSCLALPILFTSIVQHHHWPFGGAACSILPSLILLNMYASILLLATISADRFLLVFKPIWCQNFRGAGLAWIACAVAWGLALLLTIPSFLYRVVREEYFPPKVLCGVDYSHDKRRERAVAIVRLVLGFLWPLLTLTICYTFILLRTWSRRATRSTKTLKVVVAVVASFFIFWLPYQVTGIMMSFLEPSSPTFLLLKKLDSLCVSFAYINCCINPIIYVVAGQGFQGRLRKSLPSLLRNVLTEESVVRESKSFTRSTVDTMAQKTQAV

[3] = molecular target: T1, C5a anaphylatoxin chemotactic receptor 1; test: 50% reduction in myeloperoxidase secretion from human PMNs mediated by 100 nM C5a

Compound	Agonistic activity [1]	other results
CC(=O)N[C@@H](Cc1ccccc1)C(=O)N[C@H]1CCCNC(=O)[C@@H](CCCN=C(N)N)NC(=O)[C@H](Cc2c[nH]c3ccccc23)NC(=O)[C@@H](CC2CCCCC2)NC(=O)[C@@H]2CCCN2C1=O	inactive	–
CN[C@@H](Cc1ccccc1)C(=O)N[C@@H](CCCCN)C(=O)N1CCC[C@H]1C(=O)N[C@H](CC1CCCCC1)C(=O)N[C@@H](Cc1c[nH]c2ccccc12)C(=O)N[C@H](CCCN=C(N)N)C(N)=O	inactive	–
CN[C@@H](Cc1ccccc1)C(=O)N[C@@H](CCCCN)C(=O)N1CCC[C@H]1C(=O)N[C@@H](CC1CCCCC1)C(=O)N[C@@H](Cc1c[nH]c2ccccc12)C(=O)N[C@@H](CCCN=C(N)N)C(=O)O	inactive	–
CC(=O)N[C@@H](Cc1ccccc1)C(=O)N[C@H]1CCCCNC(=O)[C@H](CCCN=C(N)N)NC(=O)[C@H](Cc2c[nH]c3ccccc23)NC(=O)[C@@H](CC2CCCCC2)NC(=O)[C@@H]2CCCN2C1=O	inactive	–
CN[C@@H](Cc1ccccc1)C(=O)N[C@@H](CCCCN)C(=O)N1CCC[C@H]1C(=O)N[C@H](CC1CCCCC1)C(=O)N[C@@H](Cc1c[nH]c2ccccc12)C(=O)N[C@@H](CCCN=C(N)N)C(=O)O	inactive	–
CC[C@H](C)[C@H](N)C(=O)N[C@@H](CO)C(=O)N[C@@H](Cc1cnc[nH]1)C(=O)N[C@@H](CCCCN)C(=O)N[C@@H](CC(=O)O)C(=O)N[C@@H](CCSC)C(=O)N[C@@H](CCC(N)=O)C(=O)N[C@@H](CC(C)C)C(=O)NCC(=O)N[C@@H](CCCNC(=N)N)C(=O)O (H-ISHKDMQLGR-OH)	–	IC50 [2]: > 1 mM
CN[C@@H](Cc1ccccc1)C(=O)N[C@@H](CCCCN)C(=O)N1CCC[C@H]1C(=O)N[C@@H](CC(C)C)C(=O)N[C@@H](Cc1c[nH]c2ccccc12)C(=O)N[C@@H](CCCN=C(N)N)C(=O)O (HELM PEPTIDE1{[meF].K.P.L.W.R}$$$$V2.0)	–	IC50 [3]: > 1 mM
